Laboratory results published in patent US20060014826A1, “Dioxocyclohexane carboxylic acid phenyl amide derivatives for modulating voltage-gated potassium channels and pharmaceutical compositions containing the same” (Wyeth, priority 2004, published 2006).

Columns and labels:
[1] = biological target: T1, human Kv1.1/Kvβ1 potassium ion channel complex (Homo sapiens, UniProt Q09470+Q14722); assay: Inhibiting the inactivation of Kv1.1/Kvβ1 potassium ion channel complex, voltage clamp current recordings in Xenopus oocytes; format: cell-based; settings: relative to control oocytes without test compound, read-out: Percent Increase in Steady State Current (@ concentration shown in parentheses)
T1 construct: expressed in transfected cells; host or cells: Xenopus oocytes injected with cRNA
T1 sequence (Q09470 whole entry): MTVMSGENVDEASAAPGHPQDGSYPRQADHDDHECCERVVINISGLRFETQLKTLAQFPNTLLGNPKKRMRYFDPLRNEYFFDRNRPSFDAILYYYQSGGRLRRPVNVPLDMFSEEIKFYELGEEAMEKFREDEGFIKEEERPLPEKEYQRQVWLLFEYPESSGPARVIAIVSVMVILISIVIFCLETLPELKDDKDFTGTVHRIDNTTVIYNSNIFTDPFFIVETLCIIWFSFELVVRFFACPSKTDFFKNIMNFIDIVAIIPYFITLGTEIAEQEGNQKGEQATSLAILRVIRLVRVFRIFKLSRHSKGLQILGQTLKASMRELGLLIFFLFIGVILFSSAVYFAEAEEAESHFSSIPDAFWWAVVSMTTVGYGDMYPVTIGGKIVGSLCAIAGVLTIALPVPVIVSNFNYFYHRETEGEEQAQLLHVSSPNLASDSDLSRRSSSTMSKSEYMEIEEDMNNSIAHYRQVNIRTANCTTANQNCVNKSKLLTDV
T1 sequence (Q14722 whole entry): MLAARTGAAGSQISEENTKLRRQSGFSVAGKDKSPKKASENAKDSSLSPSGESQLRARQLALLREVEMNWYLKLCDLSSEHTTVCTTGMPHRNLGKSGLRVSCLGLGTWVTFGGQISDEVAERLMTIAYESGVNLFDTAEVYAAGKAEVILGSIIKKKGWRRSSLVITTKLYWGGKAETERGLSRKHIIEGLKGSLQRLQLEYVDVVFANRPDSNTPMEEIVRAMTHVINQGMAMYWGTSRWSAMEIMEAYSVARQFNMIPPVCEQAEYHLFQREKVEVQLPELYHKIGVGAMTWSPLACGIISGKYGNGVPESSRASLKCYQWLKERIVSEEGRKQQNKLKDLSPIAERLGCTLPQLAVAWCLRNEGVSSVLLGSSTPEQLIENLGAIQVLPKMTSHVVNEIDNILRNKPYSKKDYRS
Experimental: Compounds useful in this invention were examined for their ability to inhibit the inactivation of the human Kv1.1/Kvβ1 potassium ion channel complex in vitro using electrophysiological current recordings on inactivating Kv1.1/Kvβ1channels expressed in Xenopus oocytes. The following procedure was used.
Xenopus oocytes were harvested from frogs under general anesthesia using aseptic techniques. Oocytes were treated with 2 mg/ml collagenase for 1-1.5 hr, defolliculated, and injected with 40 nL cRNA (a mixture of hKv1.1 and hKvβ1) produced using standard molecular biological techniques (Sambrook, et al., 1989, Molecular Cloning: A Laboratory Manual). The concentration of hKv1.1/hKvβ1 cRNA varies, but was generally about 50 ng/μL hKv1.1 and […] hkβ1.
Currents were recorded using standard voltage clamp amplifiers at room temperature. Recordings were performed in the bath solution “ND-96” containing 96 mM NaCl, 2 mM KCl, 1 mm CaCl2, 1 mM MgCl2, 10 mM HEPES and […] Gentamycin (pH=7.6). The pipette (electrode) solution generally consisted of 3 mM KCl. Electrodes were made from WPI TW150F-4 borosilicate glass (or equivalent) and typically had resistances of 0.5-1.5 Mohms. The standard current—voltage (IV) pulse protocol consisted of voltage steps from −60 mV to +50 mV, in 10 mV increments for 200 ms, at a frequency of one IV set per 2 minutes. Data were digitized and analyzed by standard software packages.
Test compounds where first dissolved in DMSO to an initial concentration of 1-100 mM. Working dilutions of 1:2000 to 1:500 were made in the bath solution for final concentrations in the micromolar range. The bath solutions containing the test compounds were applied by bath perfusion using gravity or pump-driven flow. A minimum of 2 mL (10 times the bath volume) over 3 minutes were flowed for each compound concentration tested. Data were averaged across at least 3 cells tested for each concentration.
Test compounds were examined for their ability to inhibit the inactivation of the steady state portion of the IV curve.

melting point [°C] | activation at 50 µM [1] [%] | activation at 100 µM [1] [%] | activation at 300 µM ([1]; 300 μm) [%] | SMILES
81 to 82 | 9 |  |  | CCC1(C)CC(=O)C(C(=O)Nc2cccc(C(F)(F)F)c2)C(=O)C1 (centres unmarked) [Example 13, N-(3-trifluoromethylphenyl)-4-ethyl-4-methyl-2,6-dioxocyclohexanecarboxamide]
 |  | 58 |  | CC1(C)CC(=O)C(C(=O)Nc2ccccc2[N+](=O)[O-])C(=O)C1 [Example 6, 4,4-dimethyl-N-(2-nitrophenyl)-2,6-dioxocyclohexanecarboxamide]
156 to 156.4 | 68 |  |  | CC1(C)CC(=O)C(C(=O)Nc2ccc(Cl)c(C(F)(F)F)c2)C(=O)O1 (centres unmarked) [Example 19, N-[4-chloro-3-(trifluoromethyl)phenyl]-6,6-dimethyl-2,4-dioxotetrahydro-2H-pyran-3-carboxamide]
 | 279 |  |  | CC1(C)CC(=O)C(C(=O)Nc2cc(Cl)cc(Cl)c2)C(=O)C1F (centres unmarked) [Example 28, 3-Fluoro-4,4-dimethyl-2,6-dioxo-cyclohexanecarboxylic acid(3,5-dichloro-phenyl)-amide]
108 to 110 | 106 |  |  | O=C1CSCC(=O)C1C(=O)Nc1ccc(Cl)c(C(F)(F)F)c1 [Example 11, N-[4-chloro-3-(trifluoromethyl)phenyl]-3,5-dioxotetrahydro-2H-thiopyran-4-carboxamide]
 |  |  | 95 | O=C1OC2(CCCC2)OC(=O)C1C(=S)Nc1ccc(Cl)c(C(F)(F)F)c1 [Example 34, 7,9-Dioxo-6,10-dioxa-spiro[4.5]decane-8-carbothioic acid(4-chloro-3-trifluoromethyl-phenyl)-amide]
99 to 100 | 105 |  |  | CCC1(C)CC(=O)C(C(=O)Nc2ccc(C(F)(F)F)cc2)C(=O)C1 (centres unmarked) [Example 17, N-(4-trifluoromethylphenyl)-4-ethyl-4-methyl-2,6-dioxocyclohexanecarboxamide]
87 to 88 | 98 |  |  | CCC1(C)CC(=O)C(C(=O)Nc2ccc(Cl)c(C(F)(F)F)c2)C(=O)C1 (centres unmarked) [Example 14, N-(4-chloro-3-trifluoromethylphenyl)-4-ethyl-4-methyl-2,6-dioxocyclohexanecarboxamide]
129 | 191 |  |  | CC1(C)CC(=O)C(C(=O)Nc2ccc(C(F)(F)F)cc2)C(=O)C1F (centres unmarked) [Example 27, 3-Fluoro-4,4-dimethyl-2,6-dioxo-cyclohexanecarboxylic acid(4-trifluoromethyl-phenyl)-amide]
 | 227 |  |  | CCOC(=O)C1C(=O)C(C(=O)Nc2cccc(C(F)(F)F)c2)C(=O)C2CCCCC21 (centres unmarked) [Example 31, 2,4-Dioxo-3-(3-trifluoromethyl-phenylcarbamoyl)-decahydro-naphthalene-1-carboxylic acid ethyl ester]
138.4 to 139.6 | 10 |  |  | CC1(C)CC(=O)C(C(=O)Nc2cccc([N+](=O)[O-])c2)C(=O)O1 (centres unmarked) [Example 22, N-(3-nitrophenyl)-6,6-dimethyl-2,4-dioxotetrahydro-2H-pyran-3-carboxamide]
 |  | 45 |  | CC1(C)CC(=O)C(C(=O)Nc2ccc(Cl)cc2C(F)(F)F)C(=O)C1 [Example 7, N-[4-chloro-2-(trifluoromethyl)phenyl]-4,4-dimethyl-2,6-dioxocyclohexanecarboxamide]
74 to 75 | 64 |  |  | CCC1(C)CC(=O)C(C(=O)Nc2ccc(Cl)c(Cl)c2)C(=O)C1 (centres unmarked) [Example 15, N-(3,4-dichlorophenyl)-4-ethyl-4-methyl-2,6-dioxocyclohexanecarboxamide]
 |  | 104 |  | CC1(C)CC(=O)C(C(=O)Nc2ccc([N+](=O)[O-])cc2)C(=O)C1 [Example 12, 4,4-dimethyl-N-(4-nitrophenyl)-2,6-dioxocyclohexanecarboxamide]
113 to 116 |  |  |  | CC1(C)CC(=O)C(C(=S)Nc2ccc(Cl)c(Cl)c2)C(=O)C1 [Example 3, N-(3,4-dichlorophenyl)-4,4-dimethyl-2,6-dioxocyclohexanecarbothioamide]

More lines, now with the values behind:

SMILES | melting point [°C] | activation at 50 µM [1] [%] | activation at 100 µM [1] [%] | activation at 300 µM ([1]; 300 μm) [%]
CC1(C)CC(=O)C(C(=O)Nc2ccc(Cl)c(Cl)c2)C(=O)O1 (centres unmarked) [Example 23, N-(3,4-dichlorophenyl)-6,6-dimethyl-2,4-dioxotetrahydro-2H-pyran-3-carboxamide] | 212 to 215 | 22 |  | 
CC1(C)CC(=O)C(C(=O)Nc2cccc(C(F)(F)F)c2)C(=O)C1c1ccccc1 (centres unmarked) [Example 30, 4,4-Dimethyl-2,6-dioxo-3-phenyl-cyclohexanecarboxylic acid(3-trifluoromethyl-phenyl)-amide] |  | 8 |  | 
CC1(C)COC(=O)C(C(=O)Nc2ccc(C(F)(F)F)cc2)C1=O (centres unmarked) [Example 25, N-[4-(trifluoromethyl)phenyl]-5,5-dimethyl-2,4-dioxotetrahydro-2H-pyran-3-carboxamide] |  | 10 |  | 
CCC1(C)CC(=O)C(C(=O)Nc2cc(C(F)(F)F)cc(C(F)(F)F)c2)C(=O)C1 (centres unmarked) [Example 18, N-(3,5-bis-trifluoromethylphenyl)-4-ethyl-4-methyl-2,6-dioxocyclohexanecarboxamide] | 72 to 73 | 106 |  | 
CC1(c2ccccc2)CCC(=O)C(C(=O)Nc2cccc(C(F)(F)F)c2)C1=O (centres unmarked) [Example 32, 3-Methyl-2,6-dioxo-3-phenyl-cyclohexanecarboxylic acid(3-trifluoromethyl-phenyl)-amide] |  | 6 |  | 
CC1(C)COC(=O)C(C(=O)Nc2cccc(C(F)(F)F)c2)C1=O (centres unmarked) [Example 24, N-[3-(trifluoromethyl)phenyl]-5,5-dimethyl-2,4-dioxotetrahydro-2H-pyran-3-carboxamide] |  | 5 |  | 
CC1(C)CC(=O)C(C(=O)Nc2cc(F)cc(F)c2)C(=O)C1F (centres unmarked) [Example 29, 3-Fluoro-4,4-dimethyl-2,6-dioxo-cyclohexanecarboxylic acid(3,5-difluoro-phenyl)-amide] | 131 to 132 | 258 |  | 
CC1(C)COC(=O)C(C(=O)Nc2ccc(Cl)c(C(F)(F)F)c2)C1=O (centres unmarked) [Example 26, N-[4-chloro-3-(trifluoromethyl)phenyl]-5,5-dimethyl-2,4-dioxotetrahydro-2H-pyran-3-carboxamide] | 144 to 145 | 173 |  | 
COCC1C(=O)C(C(=O)Nc2cccc(C(F)(F)F)c2)C(=O)CC1(C)C (centres unmarked) [Example 33, 3-Methoxymethyl-4,4-dimethyl-2,6-dioxo-cyclohexanecarboxylic acid (3-trifluoromethyl-phenyl)-amide] |  | 1 |  | 
CCC1(C)CC(=O)C(C(=O)Nc2ccc(F)c(Cl)c2)C(=O)C1 (centres unmarked) [Example 16, N-(3-chloro-4-fluororphenyl)-4-ethyl-4-methyl-2,6-dioxocyclohexanecarboxamide] | 91 to 92 | 18 |  | 
CC1(C)CC(=O)C(C(=O)Nc2ccc(C(F)(F)F)cc2)C(=O)O1 (centres unmarked) [Example 20, N-[4-(trifluoromethyl)phenyl]-6,6-dimethyl-2,4-dioxotetrahydro-2H-pyran-3-carboxamide] | 175.9 to 176.4 | 17 |  | 
CC1(C)CC(=O)C(C(=O)Nc2ccc(Cl)c(C(F)(F)F)c2)C(=O)C1 [Example 5, N-[4-chloro-3-(trifluoromethyl)phenyl]-4,4-dimethyl-2,6-dioxocyclohexanecarboxamide] |  | 16 |  | 
